“And” between values parts separate entries of the source, which are not always exact repeats. Identical values can stand only once.
Test system: 521955-158-R2-J5-PDC complex spheroid viability
Assay: Anticancer human tumor 521955-158-R2-J5-PDC patient-derived pancreatic carcinoma cell line growth inhibition
Details: for viability, T/C: stronger effect = lower value
Summary of the method: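 Multicellular complex spheroids of tumor cells with human endothelial cells (HUVEC) and mesenchymal stem cells; the LSD1 inhibitor iadademstat was combined with standard-of-care or investigational agents. Top concentration at or near clinical Cmax, half-log dilutions; final DMSO ≤0.25%.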

[1] = curve of first compound, second compound 0.1 µM
[2] = curve of first compound, second compound 0.316 µM
[3] = curve of first compound, second compound 1 µM
[4] = curve of first compound, second compound 3.16 µM
[5] = curve of first compound, second compound 10 µM
[6] = second compound 0.1 µM, first compound 0.0316 µM
[7] = second compound 0.1 µM, first compound 0.1 µM
[8] = second compound 0.1 µM, first compound 0.316 µM
[9] = second compound 0.1 µM, first compound 1 µM
[10] = second compound 0.316 µM, first compound 0.0316 µM
[11] = second compound 0.316 µM, first compound 0.1 µM
[12] = second compound 0.316 µM, first compound 0.316 µM
[13] = second compound 0.316 µM, first compound 1 µM
[14] = second compound 1 µM, first compound 0.0316 µM
[15] = second compound 1 µM, first compound 0.1 µM
[16] = second compound 1 µM, first compound 0.316 µM
[17] = second compound 1 µM, first compound 1 µM
[18] = second compound 3.16 µM, first compound 0.0316 µM
[19] = second compound 3.16 µM, first compound 0.1 µM
[20] = second compound 3.16 µM, first compound 0.316 µM
[21] = second compound 3.16 µM, first compound 1 µM
[22] = second compound 10 µM, first compound 0.0316 µM
[23] = second compound 10 µM, first compound 0.1 µM
[24] = second compound 10 µM, first compound 0.316 µM
[25] = second compound 10 µM, first compound 1 µM
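Note: spheroids exposed to agents for seven days.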
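Throughout, for viability, T/C: percent of DMSO vehicle control luminescence viability.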

**Q.** What does the source list for `COc1cc(Nc2ncc3c(n2)-c2ccc(Cl)cc2C(c2c(F)cccc2OC)=NC3)ccc1C(=O)O` + NC1CC1c1ccc(-c2cccc(O)c2)cc1?
**A.** IC50 [1]: > 1 µM; IC50 [2]: > 1 µM; IC50 [3]: > 1 µM; IC50 [4]: > 1 µM; IC50 [5]: > 1 µM; viability, T/C (second compound 0.1 µM, first compound 0.00316 µM): 67.5%; viability, T/C (second compound 0.1 µM, first compound 0.01 µM): 73.7%; viability, T/C [6]: 69.4%; viability, T/C [7]: 67.2%; viability, T/C [8]: 66.2%; viability, T/C [9]: 61.2%; viability, T/C (second compound 0.316 µM, first compound 0.00316 µM): 65.9%; viability, T/C (second compound 0.316 µM, first compound 0.01 µM): 78.9%; viability, T/C [10]: 62.1%; viability, T/C [11]: 72.1%; viability, T/C [12]: 81.7%; viability, T/C [13]: 59.3%; viability, T/C (second compound 1 µM, first compound 0.00316 µM): 75.1%; viability, T/C (second compound 1 µM, first compound 0.01 µM): 71.4%; viability, T/C [14]: 65.6%; viability, T/C [15]: 82.5%; viability, T/C [16]: 70.8%; viability, T/C [17]: 71.7%; viability, T/C (second compound 3.16 µM, first compound 0.00316 µM): 66.4%; viability, T/C (second compound 3.16 µM, first compound 0.01 µM): 72%; viability, T/C [18]: 81.8%; viability, T/C [19]: 72.2%; viability, T/C [20]: 75.4%; viability, T/C [21]: 66%; viability, T/C (second compound 10 µM, first compound 0.00316 µM): 69.5%; viability, T/C (second compound 10 µM, first compound 0.01 µM): 69.5%; viability, T/C [22]: 67.6%; viability, T/C [23]: 63.1%; viability, T/C [24]: 57.5%; viability, T/C [25]: 71.6%

**Q.** What does the source list for `O=C(c1cc(Cc2n[nH]c(=O)c3ccccc23)ccc1F)N1CCN(C(=O)C2CC2)CC1` + NC1CCC(NC2CC2c2ccccc2)CC1?
**A.** IC50 [1]: > 10 µM; IC50 [2]: > 10 µM; IC50 [3]: > 10 µM; IC50 [4]: > 10 µM; IC50 [5]: > 10 µM; viability, T/C [6]: 109%; viability, T/C [7]: 107%; viability, T/C [8]: 100%; viability, T/C [9]: 98.6%; viability, T/C (second compound 0.1 µM, first compound 3.16 µM): 89.3%; viability, T/C (second compound 0.1 µM, first compound 10 µM): 56.6%; viability, T/C [10]: 106%; viability, T/C [11]: 108%; viability, T/C [12]: 103%; viability, T/C [13]: 102%; viability, T/C (second compound 0.316 µM, first compound 3.16 µM): 89%; viability, T/C (second compound 0.316 µM, first compound 10 µM): 57.8%; viability, T/C [14]: 97.9%; viability, T/C [15]: 99.6%; viability, T/C [16]: 99.4%; viability, T/C [17]: 94.8%; viability, T/C (second compound 1 µM, first compound 3.16 µM): 97.1%; viability, T/C (second compound 1 µM, first compound 10 µM): 54.9%; viability, T/C [18]: 98.4%; viability, T/C [19]: 101%; viability, T/C [20]: 99.6%; viability, T/C [21]: 102%; viability, T/C (second compound 3.16 µM, first compound 3.16 µM): 86.8%; viability, T/C (second compound 3.16 µM, first compound 10 µM): 59.5%; viability, T/C [22]: 102%; viability, T/C [23]: 105%; viability, T/C [24]: 99%; viability, T/C [25]: 95.3%; viability, T/C (second compound 10 µM, first compound 3.16 µM): 81.9%; viability, T/C (second compound 10 µM, first compound 10 µM): 55.9%

**Q.** How did the viability, T/C (compound 0.316 µM) turn out when `NC1CCC(NC2CC2c2ccccc2)CC1` (stereo unspecified) was run?
**A.** The viability, T/C was 92.2% [middle of 4 runs].

**Q.** And the IC50 (compound alone, run of 02/15/2022)?
**A.** Its IC50 is > 10 µM.

**Q.** For `COc1cc(Nc2ncc3c(n2)-c2ccc(Cl)cc2C(c2c(F)cccc2OC)=NC3)ccc1C(=O)O`, which viability, T/C (compound 0.00316 µM) is on record?
**A.** Its viability, T/C is 46.9% and 75.9%.

**Q.** And the viability, T/C (compound 0.01 µM)?
**A.** Its viability, T/C is 56.3% and 81.6%.

**Q.** What about the viability, T/C (compound 0.0316 µM) of the same molecule?
**A.** The viability, T/C was 57.4% and 74.7%.

**Q.** And the viability, T/C (compound 0.1 µM)?
**A.** The viability, T/C was 46.7% and 67.2%.

**Q.** What about the viability, T/C (compound 0.316 µM) of the same molecule?
**A.** Its viability, T/C is 49% and 61.8%.

**Q.** And the viability, T/C (compound 1 µM)?
**A.** Its viability, T/C is 42% and 61.7%.

**Q.** And the IC50 (curve of compound)?
**A.** The IC50 was 0.154 µM and > 1 µM.

**Q.** How did the viability, T/C (compound 0.00949 µM) turn out when `COc1cc(C2c3cc4c(cc3C(OC3OC5COC(C)OC5C(O)C3O)C3COC(=O)C23)OCO4)cc(OC)c1O` (stereo unspecified) was run?
**A.** The viability, T/C was 98.3% and 103%.

**Q.** What about the viability, T/C (compound 0.03 µM) of the same molecule?
**A.** Its viability, T/C is 88.7% and 100%.

**Q.** What about the viability, T/C (compound 0.0949 µM) of the same molecule?
**A.** Its viability, T/C is 36.7% and 63.7%.

**Q.** What about the viability, T/C (compound 0.3 µM) of the same molecule?
**A.** The viability, T/C was 16.6% and 28.2%.

**Q.** What about the viability, T/C (compound 0.949 µM) of the same molecule?
**A.** The viability, T/C was 9.58% and 15.6%.

**Q.** And the viability, T/C (compound 3 µM)?
**A.** The viability, T/C was 8.64% and 9.05%.

**Q.** And the IC50 (curve of compound)?
**A.** Its IC50 is 0.0715 µM and 0.151 µM.

— PubChem BioAssay AID1918937 (Molecular Pharmacology Branch, DTP, NCI, 2023)
